In EP0818453B1, “Benzothiophene compounds and methods of use” (ELI LILLY AND COMPANY, priority 1996, dated 1998):
Marks after values point to notes of the source that are not given here.

Test system: ovariectomized rats
Test: Ovariectomized rat model of postmenopausal hyperlipidemia (serum cholesterol, uterine weight, uterine eosinophil peroxidase)
Assay type: in vivo
Conditions: for Serum Cholest. % Dec.: decrease versus ovariectomized controls; for Uterine Eosinophil (Vmax): eosinophil peroxidase, Vmaximum; for Uterine Weight % Inc: increase versus ovariectomized controls
Experimental: Experimental models of postmenopausal hyperlipidemia are known in the art. Germane to this invention is the ovariectomized rat model which is detailed in U.S. 5,464,845.
Data presented in Table 1 show comparative results among ovariectomized rats, rats treated with 17-a-ethynyl estradiol(EE2), and rats treated with certain compounds of this invention. […] This uterine response to estrogen is well recognized in the art.
As expressed in the data below, estrogenicity also was assessed by evaluating the response of eosinophil infiltration into the uterus.
The data presented in Table 1 reflect the response per treatment group.

Uterine Eosinophil (Vmax) (0.001 mg/kg PO) | Uterine Weight % Inc (0.001 mg/kg PO) | Uterine Eosinophil (Vmax) (0.01 mg/kg PO) | Uterine Weight % Inc (0.01 mg/kg PO) | Uterine Eosinophil (Vmax) (0.1 mg/kg PO) | Uterine Weight % Inc (0.1 mg/kg PO) | Compound | Serum Cholest. % Dec. (0.001 mg/kg PO) | Serum Cholest. % Dec. (0.01 mg/kg PO) | Serum Cholest. % Dec. (0.1 mg/kg PO) | Serum Cholest. % Dec. (1.0 mg/kg PO) | Serum Cholest. % Dec. (10.0 mg/kg PO) | uterine weight (0.1 mg/kg/day orally, versus ovariectomized animals, result in words) | serum cholesterol (orally administered at 0.1 mg/kg/day, result in words) | eosinophil infiltration into the uterus (stromal layer of ovariectomized rat uteri, result in words)
– | – | – | – | – | – | C[C@]12CC[C@@H]3c4ccc(O)cc4CC[C@H]3[C@@H]1CC[C@@H]2O [17-b-Estradiol] | 67.6* % | 57.5* % | 58.7* % | – | – | – | – | –
– | – | – | – | – | – | Cl.O=C(c1ccc(-c2ccc(OCCN3CCCCC3)cc2)cc1)c1c(-c2ccc(O)cc2)sc2cc(O)ccc12 [Compound 5, [2-(4-Hydroxyphenyl)-6-hydroxybenzo[b]thien-3-yl] [4'-[2-(1-piperidinyl)ethoxy]biphenyl-4-yl]methanone hydrochloride] | – | 15.9* % | 66.7* % | 87.3* % | – | – | – | –
– | – | – | – | – | – | O=C(c1ccc2cc(OCCN3CCCCC3)ccc2c1)c1c(-c2ccc(O)cc2)sc2cc(O)ccc12 [Compound 10, [2-(4-Hydroxyphenyl)-6-hydroxybenzo[b]thien-3-yl][6-[2-(1-piperidinyl)ethoxy]naphth-2-yl]methanone] | – | – | 39.4* % | 59.3* % | 69.1* % | – | – | –
20* | 35.8* % | 25.6* | 61.0* % | 276.6* | 129.6* % | C#C[C@]1(O)CC[C@H]2[C@@H]3CCc4cc(O)ccc4[C@H]3CC[C@@]21C [EE2, 17-a-ethynyl estradiol] | -1.9% | 12% | 77.7* % | – | – | substantially greater than the uterine weight of the ovariectomized animals | caused a decrease in serum cholesterol | substantial and expected increase in eosinophil infiltration
